The supplement of paper PMC7796163
± gives the uncertainty stated by the source.

How the values were obtained:
Test in all cases: CYP enzyme activity (probe substrate metabolite formation) fold change vs solvent control; higher = stronger induction of CYP activity
Details in all cases: HepaRG
CYP3A4 = CYP3A4 (UniProt P08684)
Protocol: (§1)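 Differentiated HepaRG cells were treated with 1, 5 or 10 µM of each PAH (0.5% DMSO) for 12, 24 or 48 h, then incubated for 3 h at 37 °C with a cocktail of isoform-specific CYP substrates (phenacetin for CYP1A2, bupropion for CYP2B6, amodiaquine for CYP2C8, tolbutamide for CYP2C9, mephenytoin for CYP2C19, propafenone for CYP2D6, atorvastatin for CYP3A4). Metabolite formation was quantified by LC-MS as a measure of CYP activity and reported as fold change over solvent control (mean ± SD, n=3). Values below the LLOQ were set to half the LLOQ.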

CYP2C9 = CYP2C9 (UniProt P11712)
Chain of CYP2C9 (P11712 whole entry): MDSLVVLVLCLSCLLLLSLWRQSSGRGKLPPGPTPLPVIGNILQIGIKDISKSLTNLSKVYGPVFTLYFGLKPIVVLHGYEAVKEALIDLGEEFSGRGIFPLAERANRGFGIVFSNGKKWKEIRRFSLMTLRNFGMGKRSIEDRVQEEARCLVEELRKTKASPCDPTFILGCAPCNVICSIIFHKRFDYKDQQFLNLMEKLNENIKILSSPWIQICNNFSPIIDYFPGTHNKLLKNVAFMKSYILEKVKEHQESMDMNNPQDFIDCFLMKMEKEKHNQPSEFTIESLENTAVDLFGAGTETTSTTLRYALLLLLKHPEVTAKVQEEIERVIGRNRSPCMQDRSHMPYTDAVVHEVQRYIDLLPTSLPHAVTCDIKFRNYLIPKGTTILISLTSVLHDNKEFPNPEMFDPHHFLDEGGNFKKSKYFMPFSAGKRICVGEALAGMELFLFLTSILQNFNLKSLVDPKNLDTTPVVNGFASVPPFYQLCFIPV
Protocol: as §1

CYP2D6 = CYP2D6 (UniProt P10635)
Chain of CYP2D6 (P10635 whole entry): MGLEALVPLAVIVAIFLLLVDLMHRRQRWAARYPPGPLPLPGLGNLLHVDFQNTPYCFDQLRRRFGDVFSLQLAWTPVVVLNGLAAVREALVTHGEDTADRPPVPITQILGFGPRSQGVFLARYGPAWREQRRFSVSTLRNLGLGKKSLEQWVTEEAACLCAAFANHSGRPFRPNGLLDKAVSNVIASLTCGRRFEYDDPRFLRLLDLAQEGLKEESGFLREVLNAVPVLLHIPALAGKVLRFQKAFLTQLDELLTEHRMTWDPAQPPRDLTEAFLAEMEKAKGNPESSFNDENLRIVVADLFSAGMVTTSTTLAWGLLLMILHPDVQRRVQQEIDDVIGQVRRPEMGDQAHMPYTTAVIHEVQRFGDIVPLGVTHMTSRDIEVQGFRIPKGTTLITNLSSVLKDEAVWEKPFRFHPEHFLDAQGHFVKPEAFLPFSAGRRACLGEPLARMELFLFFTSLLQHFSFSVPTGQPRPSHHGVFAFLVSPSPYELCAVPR
Protocol: as §1

CYP1A2 = biological target: T1, CYP1A2 (UniProt P05177)
T1 sequence (whole entry): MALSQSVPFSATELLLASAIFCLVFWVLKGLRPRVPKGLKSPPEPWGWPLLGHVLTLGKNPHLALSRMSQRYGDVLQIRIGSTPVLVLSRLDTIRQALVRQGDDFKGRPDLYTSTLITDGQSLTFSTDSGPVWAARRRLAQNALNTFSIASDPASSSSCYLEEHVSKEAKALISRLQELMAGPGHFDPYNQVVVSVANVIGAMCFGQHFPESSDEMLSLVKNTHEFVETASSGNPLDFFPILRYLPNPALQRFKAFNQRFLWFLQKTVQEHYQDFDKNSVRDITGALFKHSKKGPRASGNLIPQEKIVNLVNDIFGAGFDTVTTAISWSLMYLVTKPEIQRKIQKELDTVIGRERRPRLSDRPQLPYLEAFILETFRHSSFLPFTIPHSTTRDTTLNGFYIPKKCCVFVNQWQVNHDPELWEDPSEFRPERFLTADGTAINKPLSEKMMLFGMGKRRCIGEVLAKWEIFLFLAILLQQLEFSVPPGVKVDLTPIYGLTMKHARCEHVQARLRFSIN
Protocol: as §1

CYP2C19 = CYP2C19 (UniProt P33261)
Chain of CYP2C19 (P33261 whole entry): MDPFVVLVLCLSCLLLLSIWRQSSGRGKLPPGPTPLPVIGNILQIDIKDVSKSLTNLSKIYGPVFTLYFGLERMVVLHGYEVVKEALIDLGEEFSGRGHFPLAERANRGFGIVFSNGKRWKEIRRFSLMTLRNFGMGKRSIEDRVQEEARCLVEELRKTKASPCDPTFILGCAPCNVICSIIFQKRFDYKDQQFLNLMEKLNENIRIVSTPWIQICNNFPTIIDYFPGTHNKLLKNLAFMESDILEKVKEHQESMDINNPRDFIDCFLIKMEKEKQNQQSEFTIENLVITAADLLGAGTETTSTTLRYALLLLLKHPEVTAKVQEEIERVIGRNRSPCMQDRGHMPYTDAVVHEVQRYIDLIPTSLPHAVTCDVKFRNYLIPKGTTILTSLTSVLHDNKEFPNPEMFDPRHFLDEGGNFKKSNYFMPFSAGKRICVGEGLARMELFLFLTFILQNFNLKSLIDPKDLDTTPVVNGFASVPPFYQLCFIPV
Protocol: as §1

CYP2C8 = biological target: T2, CYP2C8 (UniProt P10632)
T2 sequence (whole entry): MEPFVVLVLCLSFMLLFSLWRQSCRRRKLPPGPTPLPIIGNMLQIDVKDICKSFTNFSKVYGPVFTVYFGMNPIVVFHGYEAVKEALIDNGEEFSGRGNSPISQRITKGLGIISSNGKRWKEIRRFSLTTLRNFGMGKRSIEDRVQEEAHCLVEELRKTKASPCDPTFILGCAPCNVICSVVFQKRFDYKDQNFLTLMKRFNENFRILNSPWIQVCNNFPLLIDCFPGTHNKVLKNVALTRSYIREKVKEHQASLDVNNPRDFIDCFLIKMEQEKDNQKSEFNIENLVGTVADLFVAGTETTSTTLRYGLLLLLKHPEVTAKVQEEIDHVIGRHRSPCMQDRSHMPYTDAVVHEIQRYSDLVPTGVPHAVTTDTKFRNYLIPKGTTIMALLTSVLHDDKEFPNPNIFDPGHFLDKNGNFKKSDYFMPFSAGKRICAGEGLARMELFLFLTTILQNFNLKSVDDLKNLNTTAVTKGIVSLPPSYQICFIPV
Protocol: as §1

CYP2B6 = biological target: T3, CYP2B6 (UniProt P20813)
T3 sequence (whole entry): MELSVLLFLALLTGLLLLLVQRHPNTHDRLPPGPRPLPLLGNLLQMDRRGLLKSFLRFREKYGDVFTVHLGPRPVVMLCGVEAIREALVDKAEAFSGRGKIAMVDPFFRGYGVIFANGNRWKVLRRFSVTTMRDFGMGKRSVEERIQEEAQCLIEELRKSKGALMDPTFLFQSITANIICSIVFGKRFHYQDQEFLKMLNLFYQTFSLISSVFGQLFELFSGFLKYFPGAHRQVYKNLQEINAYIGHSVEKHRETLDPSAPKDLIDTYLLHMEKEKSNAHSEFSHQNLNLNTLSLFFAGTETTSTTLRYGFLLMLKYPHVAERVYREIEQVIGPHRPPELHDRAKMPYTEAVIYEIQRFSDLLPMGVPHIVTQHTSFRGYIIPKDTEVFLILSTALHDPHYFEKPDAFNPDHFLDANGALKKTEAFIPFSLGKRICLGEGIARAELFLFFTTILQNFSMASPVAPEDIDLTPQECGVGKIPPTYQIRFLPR
Protocol: as §1

Chain of CYP3A4 (P08684 whole entry, canonical isoform): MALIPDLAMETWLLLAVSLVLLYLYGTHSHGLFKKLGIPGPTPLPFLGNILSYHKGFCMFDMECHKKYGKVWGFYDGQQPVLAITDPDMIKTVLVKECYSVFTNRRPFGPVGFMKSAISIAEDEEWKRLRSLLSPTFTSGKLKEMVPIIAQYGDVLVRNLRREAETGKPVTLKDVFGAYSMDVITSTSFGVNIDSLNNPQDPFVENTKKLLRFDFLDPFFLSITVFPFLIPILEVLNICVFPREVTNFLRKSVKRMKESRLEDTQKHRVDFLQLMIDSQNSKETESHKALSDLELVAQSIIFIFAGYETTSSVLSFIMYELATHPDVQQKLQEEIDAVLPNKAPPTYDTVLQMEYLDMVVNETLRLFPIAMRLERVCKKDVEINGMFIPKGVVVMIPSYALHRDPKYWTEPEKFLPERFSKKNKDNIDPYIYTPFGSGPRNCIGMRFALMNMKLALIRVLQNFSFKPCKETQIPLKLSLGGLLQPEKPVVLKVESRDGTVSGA

c1ccc2cc3c(ccc4ccccc43)cc2c1 [benzo[a]anthracene]
CYP enzyme activity
Details	CYP1A2	CYP2B6	CYP2C8	CYP2C9	CYP2C19	CYP2D6	CYP3A4
1 µM, treatment time 12 h	1.41	0.781	0.978	0.88	0.754	0.865	0.717
1 µM, treatment time 24 h	1.01	0.901	0.978	1	0.826	0.833	0.662
1 µM, treatment time 48 h	0.817	0.683	1.01	0.927	0.862	0.696	0.702
5 µM, treatment time 12 h	5.62	1.1	0.953	0.995	0.94	1.66	0.809
5 µM, treatment time 24 h	4.68	1.45	0.973	1.02	0.934	1.15	0.844
5 µM, treatment time 48 h	1.98	0.896	0.898	0.989	1.003	0.774	0.754
10 µM, treatment time 12 h	9.59	1.11	0.992	0.949	0.934	2.55	0.907
10 µM, treatment time 24 h	9.37	1.63	0.875	1.02	0.925	1.41	0.855
10 µM, treatment time 48 h	3.86	0.97	0.792	0.849	0.882	0.712	0.702

c1ccc2cc3c(cc2c1)-c1cccc2cccc-3c12 [benzo[k]fluoranthene]
CYP enzyme activity
Details	CYP1A2	CYP2B6	CYP2C8	CYP2C9	CYP2C19	CYP2D6	CYP3A4
1 µM, treatment time 12 h	7.62	0.673	0.918	0.808	0.834	1.93	0.73
1 µM, treatment time 24 h	15.3	0.763	0.793	0.744	0.702	1.9	0.633
1 µM, treatment time 48 h	25.3	0.806	0.812	0.704	0.832	1.36	0.544
5 µM, treatment time 12 h	9.06	0.751	0.875	0.76	0.854	2.35	0.89
5 µM, treatment time 24 h	17.8	0.806	0.682	0.67	0.723	2.71	0.676
5 µM, treatment time 48 h	27.3	0.574	0.278	0.396	0.577	1.62	0.342
10 µM, treatment time 12 h	5.83	0.741	0.759	0.725	0.76	2.05	0.93
10 µM, treatment time 24 h	16.9	0.923	0.625	0.594	0.754	2.98	0.732
10 µM, treatment time 48 h	17.5	0.446	0.164	0.312	0.455	1.49	0.283

c1ccc2c(c1)-c1cccc3c1c-2cc1ccccc13 [benzo[b]fluoranthene]
CYP enzyme activity
Details	CYP1A2	CYP2B6	CYP2C8	CYP2C9	CYP2C19	CYP2D6	CYP3A4
1 µM, treatment time 12 h	2.68	1.04	0.95	0.95	0.955	1.24	0.857
1 µM, treatment time 24 h	1.78	1.23	0.906	0.907	0.885	0.924	0.751
1 µM, treatment time 48 h	1.75	0.832	0.908	0.891	0.984	0.763	0.732
5 µM, treatment time 12 h	3.81	1.29	0.951	0.978	1.05	1.38	0.925
5 µM, treatment time 24 h	9.11	2.08	0.817	0.951	0.951	1.52	0.823
5 µM, treatment time 48 h	5.4	1.33	0.717	0.82	0.976	0.934	0.732
10 µM, treatment time 12 h	0.947	1.21	0.929	0.939	0.995	1.19	0.875
10 µM, treatment time 24 h	13.2	1.71	0.758	0.842	0.876	1.87	0.723
10 µM, treatment time 48 h	7.06	1.4	0.444	0.602	0.667	0.823	0.495

c1ccc2c(c1)ccc1ccc3ccccc3c12 [benzo[c]phenanthrene]
CYP enzyme activity
Details	CYP1A2	CYP2B6	CYP2C8	CYP2C9	CYP2C19	CYP2D6	CYP3A4
1 µM, treatment time 12 h	1.2	1.02	0.945	1	0.916	0.94	0.867
1 µM, treatment time 24 h	1.09	1.04	0.9596	0.961	0.911	0.773	0.843
1 µM, treatment time 48 h	0.925	0.921	0.962	0.922	1.04	0.772	0.834
5 µM, treatment time 12 h	1.34	1.31	0.947	1.02	1.04	0.992	0.926
5 µM, treatment time 24 h	1.28	1.81	1.04	1.15	1.09	1.05	1.002
5 µM, treatment time 48 h	1.28	2.27	1.09	1.28	1.19	1.05	1.13
10 µM, treatment time 12 h	1.5	1.27	0.958	1.01	1.03	1.04	0.849
10 µM, treatment time 24 h	1.5	2.02	1.13	1.103	1.03	1.13	0.999
10 µM, treatment time 48 h	1.46	2.87	1.08	1.21	1.19	1.08	1.2
